Assay results taken from ChEMBL document CHEMBL5303304, “EUbOPEN Chemogenomics Library - IncuCyte” (2023).

What was measured:
Format in all cases: toxicity, cell-based
[1] = test system: U2OS; experiment: Incucyte cell viability with U2OS; conditions: human, 10 µM, compound concentration 10 uM
[2] = test system: Fibroblast; experiment: Incucyte cell viability with human fibroblast; conditions: 10 µM, compound concentration 10 uM
[3] = test system: HEK-293T; experiment: Incucyte cell viability with HEK293T; conditions: human, 10 µM, compound concentration 10 uM
Also: unitless GR value; below 1 slowed growth and below 0 cell loss.

Row | SMILES | Growth Rate ([1]; 0 h, replicate number 1) | Growth Rate ([1]; 0 h, replicate number 2) | Growth Rate ([1]; 6 h, replicate number 1) | Growth Rate ([1]; 12 h, replicate number 2) | Growth Rate ([1]; 24 h, replicate number 1) | Growth Rate ([2]; 6 h, replicate number 1) | Growth Rate ([2]; 12 h, replicate number 2) | Growth Rate ([2]; 18 h, replicate number 2) | Growth Rate ([2]; 24 h, replicate number 2) | Growth Rate ([3]; 0 h, replicate number 1) | Growth Rate ([3]; 0 h, replicate number 2) | Growth Rate ([3]; 12 h, replicate number 2) | Growth Rate ([2]; 0 h, replicate number 2) | Growth Rate ([1]; 6 h, replicate number 2) | Growth Rate ([1]; 12 h, replicate number 1) | Growth Rate ([1]; 18 h, replicate number 1) | Growth Rate ([1]; 18 h, replicate number 2) | Growth Rate ([1]; 24 h, replicate number 2) | Growth Rate ([2]; 18 h, replicate number 1) | Growth Rate ([2]; 0 h, replicate number 1) | also measured
1 | CCC(C)(C)CC[C@H](NC(=O)N1CCOCC1)C(=O)NC1(C#N)CCN(C)CC1 | 0.09 | -0.03 | 1 | 0.96 | 0.88 | 0.76 | 0.5 | 0.95 | 0.95 | 0.93 | -0.17 | 0.91 |  |  |  |  |  |  |  |  | Growth Rate ([2]; 6 h, replicate number 2): -0.59
2 | CCCn1cc(-c2cc(C3C(=O)N(CC)c4ccc(C(F)(F)F)cc4N(c4ccccc4)C3=O)cc(OC)c2O)cn1 (stereo not drawn) |  |  |  |  | 0.91 | 0.92 | 0.46 | 0.74 | 0.85 | 0.67 | 0.59 |  | 0.51 |  |  |  |  |  |  |  | Growth Rate ([2]; 6 h, replicate number 2): -0.56
3 | CC(C)(O)CNC(=O)N1C(=O)N(c2cccc(C(F)(F)F)c2)C2=C(C(=O)CC2)[C@@H]1c1ccc(C#N)cc1 | 0.14 |  | 0.14 |  | 0.76 | 0.57 |  | 0.94 |  | 0.26 |  | 0.97 |  | 0.9 | 0.58 | 0.65 |  |  |  |  | 
4 | CC(C)(O)CNC(=O)N1C(=O)N(c2cccc(C(F)(F)F)c2)C2=C(C(=O)CC2)[C@H]1c1ccc(C#N)cc1 | 0.26 |  | 0.67 | 0.96 | 0.86 |  |  | 0.82 | 0.97 | -0.47 |  | 0.98 | 0.22 |  | 0.56 | 0.85 |  |  |  |  | Growth Rate ([3]; 18 h, replicate number 1): 0.94; Growth Rate ([3]; 18 h, replicate number 2): 1; Growth Rate ([3]; 24 h, replicate number 1): 0.94
5 | Cc1cc2c(cc(C(=O)N[C@H](CO)c3ccc(S(=O)(=O)CC(=O)O)cc3)n2C)c(Cl)c1Cl |  |  | 0.61 | 0.94 | 0.95 | 0.15 | 0.77 | 0.68 |  | 0.87 |  |  |  | 0.7 |  | 0.92 | 0.79 | 1 |  |  | Growth Rate ([3]; 6 h, replicate number 1): 0.99; Growth Rate ([3]; 24 h, replicate number 1): 0.99
6 | CNC(=O)COc1cc2cc(Nc3nc(N4C[C@H](C)C[C@H](C)C4)ncc3Cl)ccc2n(C)c1=O |  | 0.58 | 0.85 | 0.85 | 0.95 | 0.72 |  |  |  | 0.06 | 0.7 |  | -0.82 |  |  | 0.92 |  |  | 0.7 |  | Growth Rate ([2]; 12 h, replicate number 1): 0.96; Growth Rate ([2]; 24 h, replicate number 1): 0.99
7 | Cn1cnc(Cn2ccc3ccc(CNCc4[nH]c5ccccc5c4[C@H]4NC(=O)c5ccc(O)cc54)cc32)c1 |  | 0.28 | 0.88 | 0.81 | 0.91 | 0.19 |  | 0.8 |  | -0.01 |  |  | -0.84 | 0.3 | 0.98 |  | 0.67 | 0.9 | 0.68 | -0.98 | Growth Rate ([2]; 6 h, replicate number 2): 0.48
8 | Cc1cc(OCCC(C)(C)O)cc(C)c1-c1ccc(F)c2c1CC[C@H]2Oc1ccc2c(c1)OC[C@H]2CC(=O)O | 0.95 |  | 0.51 | 0.87 | 0.98 | 0.77 | -0.01 | 0.57 | 0.67 | 0.74 | 0.8 | 0.86 |  |  | 0.97 | 0.74 | 0.88 | 0.84 |  | -0.99 | Growth Rate ([3]; 6 h, replicate number 1): 0.79; Growth Rate ([3]; 12 h, replicate number 1): 0.91; Growth Rate ([3]; 18 h, replicate number 1): 0.98
9 | CC(C)c1nc2c(c3c1[C@@H](c1ccc(C(F)(F)F)cc1)OC31CCOCC1)[C@@H](O)CC(C)(C)C2.Cl |  |  | 0.88 | 0.78 |  | -0.53 | 0.76 |  | 0.96 | 0.12 |  | 0.61 |  |  |  |  | 0.78 | 0.87 | 0.15 | -1 | Growth Rate ([2]; 12 h, replicate number 1): -0.05; Growth Rate ([2]; 24 h, replicate number 1): 0.49; Growth Rate ([3]; 6 h, replicate number 2): 0.11; Growth Rate ([3]; 12 h, replicate number 1): 0.73; Growth Rate ([3]; 18 h, replicate number 1): 0.63; Growth Rate ([3]; 18 h, replicate number 2): 0.97; Growth Rate ([3]; 24 h, replicate number 1): 0.78; Growth Rate ([3]; 24 h, replicate number 2): 0.8
10 | C[C@@H]1C[C@H](C)CN(c2ncc(Cl)c(Nc3ccc4c(c3)cc(OC(C)(C)C(=O)O)c(=O)n4C)n2)C1 | 0.85 | -0.87 | 0.72 | 0.42 | 0.78 |  | 0.53 | 0.8 | 0.99 | 0.98 | 0.84 |  |  | -0.32 |  |  | 0.57 | 0.72 |  |  | 
11 | CN1CCC(C#N)(NC(=O)[C@@H](NC(=O)N2CCOCC2)C(C)(C)C)CC1 |  | 0.61 |  |  | 0.92 | 0.5 |  | 0.75 |  | 0.92 | 0.91 |  | -0.99 | 0.92 | 0.98 | 0.98 | 1 |  | 0.98 |  | Growth Rate ([2]; 24 h, replicate number 1): 0.99; Growth Rate ([3]; 6 h, replicate number 1): 0.8
12 | Cc1nc2cccnc2n2c(-c3cc(C(C)(C)O)ncc3Cl)nnc12 |  | 0.27 |  | 0.74 |  | 0.43 |  |  |  | 0.72 | -0.52 |  | -0.22 | 0.32 |  |  | 0.95 |  | 0.63 | -1 | 
13 | N#Cc1ccc(C#CC[C@@H](C#N)NC(=O)[C@@H]2CCCCN2)cc1F | 0.67 | 0.31 | 0.57 | 0.73 |  | 0.62 | 1 | 0.9 |  | 0.68 |  | 0.89 | -0.9 |  | 0.92 |  | 0.85 | 0.86 | 0.73 | -1 | Growth Rate ([2]; 12 h, replicate number 1): 0.89; Growth Rate ([2]; 24 h, replicate number 1): 0.74; Growth Rate ([3]; 6 h, replicate number 2): 0.76
14 | Cn1cnc(Cn2ccc3ccc(CNCc4[nH]c5ccccc5c4[C@@H]4NC(=O)c5ccc(O)cc54)cc32)c1 |  |  | 0.54 | 0.81 | 0.95 | 0.3 | 0.75 | 0.38 | 0.88 | 0.61 |  |  | 0.6 | 0.95 | 0.8 | 0.99 | 0.85 |  | 0.8 | -0.98 | Growth Rate ([2]; 6 h, replicate number 2): -0.87; Growth Rate ([2]; 24 h, replicate number 1): 0.98
15 | CCN1C(=O)c2cc(C)ccc2N(C)c2ncccc21 |  | 0.61 |  | 0.85 |  | 0.13 | 0.29 | 0.88 |  | 0.6 | 0.45 | 0.41 | -0.91 | 0.81 | 0.87 |  | 0.7 | 0.8 | 0.79 | -1 | Growth Rate ([2]; 6 h, replicate number 2): 0.79; Growth Rate ([2]; 12 h, replicate number 1): 0.88; Growth Rate ([3]; 6 h, replicate number 1): 0.52; Growth Rate ([3]; 6 h, replicate number 2): 1; Growth Rate ([3]; 12 h, replicate number 1): 0.32; Growth Rate ([3]; 18 h, replicate number 1): 0.42; Growth Rate ([3]; 18 h, replicate number 2): 0.71; Growth Rate ([3]; 24 h, replicate number 1): 0.65; Growth Rate ([3]; 24 h, replicate number 2): 0.74
16 | CS(=O)(=O)O.C[C@H](NC(=O)c1cnc2n1[C@](C)(Cc1ccc(C#N)cc1)C(=O)N2c1cc(Cl)c(F)c(Cl)c1)C(=O)NC1(c2ccccn2)CC1 |  | -0.46 | 0.8 | 0.49 | 0.82 | 0.73 | 0.94 | 0.61 | 0.87 | 0.44 | 0.94 |  |  | 0.54 | 0.92 | 0.98 | 0.81 |  | 0.98 | -1 | Growth Rate ([2]; 6 h, replicate number 2): 0.85; Growth Rate ([2]; 24 h, replicate number 1): 0.73
